Reference: US8124129B2, “Crystalline form of the compound A-348441” (Karo Bio AB, priority 2005, dated 2012)

How the values were obtained:
Format in all cases: physicochemical
[1] = Stability study under accelerated conditions: impurity profile / overall purity by HPLC; settings: for overall purity (HPLC) after storage: 2 months; for overall purity (HPLC), initial: before storage
Experimental: (§1) Impurity profile, moisture content and crystalline form were measured on the samples, and then again approximately 3 months later for Sample 1, and 2 months later for Samples 2 and 3.
The impurity profile was measured by HPLC.

[2] = Stability study under accelerated conditions: moisture content by Karl Fischer analysis
Experimental: (§2) Three samples of Compound I were packaged separately in double polyethylene bags in a small cardboard box, which were stored in a stability chamber under accelerated conditions (40° C./75% […] Humidity). Sample 1 was 10 g of crystalline Form 1; Sample 2 was 2 g of amorphous product prepared as described in Example 1B above; and Sample 3 was 2 g of crystalline Form 2 made as described in Example 1A above.
as §1
Karl Fischer analysis was used to measure moisture content.

[3] = Stability study under accelerated conditions: crystalline form by differential scanning calorimetry; settings: 3 months, 40° C./75% Residual Humidity
Experimental: as §2, §1

[4] = Solubility (general statement)
[5] = 40° C./75% Residual Humidity, double polyethylene bags
[6] = compared with crystalline form of Example 1S of WO 2004/000869 and amorphous form, general statement

Row | SMILES | overall purity (HPLC) after storage [1, 5] [%] | overall purity (HPLC), initial [1] [%] | water uptake (Karl Fischer) after storage ([2]; 2 months, 40° C./75% Residual Humidity, relative to Samples 1 and 2) | water content (Karl Fischer) after storage ([2]; 2 months, 40° C./75% Residual Humidity) [%] | moisture content, initial ([2]; before storage) | change in crystalline form (DSC thermograms) [3] | change of overall purity (HPLC) after storage ([1]; 3 months, 40° C./75% Residual Humidity, double polyethylene bags) | stability under accelerated conditions, overall conclusion ([1]; compared with Compound I in other forms) | stability [1, 6] | water uptake (Karl Fischer) after storage ([2]; 3 months, 40° C./75% Residual Humidity) | hygroscopicity [2, 6] | solubility [4]
1 | CC#C[C@]1(O)CC[C@H]2[C@@H]3CCC4=CC(=O)CCC4=C3[C@@H](c3ccc(N(C)CCO[C@H]4CC[C@@]5(C)[C@@H](C4)C[C@@H](O)[C@@H]4[C@@H]5C[C@H](O)[C@]5(C)[C@@H]([C@H](C)CCC(=O)O)CC[C@@H]45)cc3)C[C@@]21C [Sample 3, (3β,5β,7α,12α)-7,12-dihydroxy-3-{2-[{4-[17β-hydroxy-3-oxo-17α-prop-1-ynylestra-4,9-dien-11β-yl]phenyl}(methyl)amino]ethoxy}cholan-24-oic acid] | 90.7 | 93.2 | intermediate behaviour |  |  |  |  |  |  |  |  | 
2 | CC#C[C@]1(O)CC[C@H]2[C@@H]3CCC4=CC(=O)CCC4=C3[C@@H](c3ccc(N(C)CCO[C@H]4CC[C@@]5(C)[C@@H](C4)C[C@@H](O)[C@@H]4[C@@H]5C[C@H](O)[C@]5(C)[C@@H]([C@H](C)CCC(=O)O)CC[C@@H]45)cc3)C[C@@]21C [Sample 2, (3β,5β,7α,12α)-7,12-dihydroxy-3-{2-[{4-[17β-hydroxy-3-oxo-17α-prop-1-ynylestra-4,9-dien-11β-yl]phenyl}(methyl)amino]ethoxy}cholan-24-oic acid] | 96.7 | 97.3 |  | 5 | anhydrous |  |  |  |  |  |  | 
3 | CC#C[C@]1(O)CC[C@H]2[C@@H]3CCC4=CC(=O)CCC4=C3[C@@H](c3ccc(N(C)CCO[C@H]4CC[C@@]5(C)[C@@H](C4)C[C@@H](O)[C@@H]4[C@@H]5C[C@H](O)[C@]5(C)[C@@H]([C@H](C)CCC(=O)O)CC[C@@H]45)cc3)C[C@@]21C [Sample 1, (3β,5β,7α,12α)-7,12-dihydroxy-3-{2-[{4-[17β-hydroxy-3-oxo-17α-prop-1-ynylestra-4,9-dien-11β-yl]phenyl}(methyl)amino]ethoxy}cholan-24-oic acid] |  |  |  |  |  | no change in crystalline form | did not change | more stable | improved stability | little water uptake | lower hygroscopicity | low solubility
